Data: patent US12661388B2, “Assessing and treating acute decompensated heart failure” (Mayo Foundation for Medical Education and Research, priority 2020, dated 2026)

Tests used:
human GC-A = target: T1, human GC-A (Homo sapiens, UniProt P16066); test: cGMP generation in HEK293 cells transfected with human GC-A receptor; assay type: cell-based; details: vs vehicle; for cGMP generation: HEK293 cells overexpressing human GC-A, 10^-8, 10^-7, 10^-6 M, 10 minutes
T1 construct: host or cells: HEK293
T1 sequence (P16066 33-1061): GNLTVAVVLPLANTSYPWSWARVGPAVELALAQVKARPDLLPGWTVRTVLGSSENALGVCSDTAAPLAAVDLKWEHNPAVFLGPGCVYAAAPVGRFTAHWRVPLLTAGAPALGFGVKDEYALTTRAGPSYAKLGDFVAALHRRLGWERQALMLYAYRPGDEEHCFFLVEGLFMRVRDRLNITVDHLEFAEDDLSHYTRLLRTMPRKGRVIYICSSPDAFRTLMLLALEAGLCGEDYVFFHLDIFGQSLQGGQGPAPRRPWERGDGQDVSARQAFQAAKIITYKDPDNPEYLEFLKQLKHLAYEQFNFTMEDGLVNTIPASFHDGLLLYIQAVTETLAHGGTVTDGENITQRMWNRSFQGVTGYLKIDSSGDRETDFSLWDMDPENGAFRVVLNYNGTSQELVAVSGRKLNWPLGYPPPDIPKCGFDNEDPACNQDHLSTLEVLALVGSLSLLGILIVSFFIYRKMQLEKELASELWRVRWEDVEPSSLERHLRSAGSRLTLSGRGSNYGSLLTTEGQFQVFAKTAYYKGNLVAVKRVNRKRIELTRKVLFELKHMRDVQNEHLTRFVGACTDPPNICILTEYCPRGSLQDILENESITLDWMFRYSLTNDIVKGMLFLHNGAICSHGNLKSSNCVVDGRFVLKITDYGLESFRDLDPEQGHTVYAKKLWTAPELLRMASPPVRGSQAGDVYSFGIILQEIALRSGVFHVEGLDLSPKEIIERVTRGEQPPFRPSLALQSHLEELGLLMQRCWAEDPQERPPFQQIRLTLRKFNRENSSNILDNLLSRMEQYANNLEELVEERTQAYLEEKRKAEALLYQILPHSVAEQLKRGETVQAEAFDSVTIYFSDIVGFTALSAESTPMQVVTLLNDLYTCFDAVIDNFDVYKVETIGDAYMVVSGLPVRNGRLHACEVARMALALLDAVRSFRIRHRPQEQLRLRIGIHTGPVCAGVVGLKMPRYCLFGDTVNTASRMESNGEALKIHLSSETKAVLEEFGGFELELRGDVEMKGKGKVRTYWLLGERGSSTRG
Excerpt: (§1) cGMP Generation in HEK293 Cells Transfected with Human GC-B or GC-A Receptor In Vitro: HEK293 cells were stably transfected with either human GC-B or GC-A (cDNA clones from Origene, Rockville, MD) using LIPOFECTAMINE® (Invitrogen, Grand Island, NY). Receptors overexpression was verified with immunofluorescence and western blotting. GC-B/-A transfected HEK293 cells were maintained in Dulbecco's modified Eagle's medium supplemented with 10% fetal bovine serum, 100 U/mL penicillin, 100 U/mL streptomycin, and 250 μg/mL G418. Cells were seeded in 48-well plates and cultured overnight to reach 80-90% confluency. The treatment buffer that includes, Hank's Balanced Salt Solution (HBSS) including 0.1% BSA, 2 mM HEPES and 0.5 mM 3-isobutyl-1-methylzanthine (IBMX—a non-specific phosphodiesterase inhibitor, Sigma, St. Louis, MO), was used in all experiments. HEK293 cells received treatment buffer (vehicle) only was used as a negative control and ANP (10^−8M) was used as a positive control in HEK293 GC-A cells and CNP (10^−8 M) was used as a positive control in HEK293 GC-B cells. Concentrations of CD-NP, CRRL-404, CRRL-405, CRRL-407 or CRRL=408 (10^−8, 10^−7, and 10^−6 M) in HBSS were incubated with HEK293 transfected GC-B or GC-A cells for 10 minutes. After treatment, all cells were washed with phosphate buffered solution (PBS) once and lysed with 0.1M HCl. Intracellular cGMP was measured in the lysate using a commercial cGMP ELISA kit (Enzo Life Sciences, Farmingdale, NY) as instructed by the manufacturer.
(§2) cGMP Assay: The ELISA plate was coated in neutralizing solution (50 μL), prior to addition of samples and standards. Cell lysates (100 μL) and standards (100 μL), in 0.1M HCL, were incubated with cGMP conjugate (50 μL) and cGMP antibody (50 μL) at room temperature for 2 hours, 500 rpm. The plates were washed 4 times and 200 μL of pNPP substrate was added in each well and incubated for 1 hour at room temperature. The reaction was stopped by adding stop solution and absorbance was read at 405 nm and corrected for plate imperfections at 570 nm using SpectramaxM2. Standard curve was generated using the Softmaxpro software and unknown concentrations were extrapolated based on the standard curve. Samples exceeding the standard curve were diluted as needed in 0.1M HCl and corresponding dilution factors were applied to extrapolate final concentrations. The standard curve range is from 0.8 pmol/mL-500 pmol/mL. The % CV at EC50 is 6.6%.

human GC-B = target: T2, human GC-B (Homo sapiens, UniProt P20594); test: cGMP generation in HEK293 cells transfected with human GC-B receptor; assay type: cell-based; details: vs vehicle; for cGMP generation: HEK293 cells overexpressing human GC-B, 10^-8, 10^-7, 10^-6 M, 10 minutes
T2 construct: host or cells: HEK293
T2 sequence (P20594 23-1047): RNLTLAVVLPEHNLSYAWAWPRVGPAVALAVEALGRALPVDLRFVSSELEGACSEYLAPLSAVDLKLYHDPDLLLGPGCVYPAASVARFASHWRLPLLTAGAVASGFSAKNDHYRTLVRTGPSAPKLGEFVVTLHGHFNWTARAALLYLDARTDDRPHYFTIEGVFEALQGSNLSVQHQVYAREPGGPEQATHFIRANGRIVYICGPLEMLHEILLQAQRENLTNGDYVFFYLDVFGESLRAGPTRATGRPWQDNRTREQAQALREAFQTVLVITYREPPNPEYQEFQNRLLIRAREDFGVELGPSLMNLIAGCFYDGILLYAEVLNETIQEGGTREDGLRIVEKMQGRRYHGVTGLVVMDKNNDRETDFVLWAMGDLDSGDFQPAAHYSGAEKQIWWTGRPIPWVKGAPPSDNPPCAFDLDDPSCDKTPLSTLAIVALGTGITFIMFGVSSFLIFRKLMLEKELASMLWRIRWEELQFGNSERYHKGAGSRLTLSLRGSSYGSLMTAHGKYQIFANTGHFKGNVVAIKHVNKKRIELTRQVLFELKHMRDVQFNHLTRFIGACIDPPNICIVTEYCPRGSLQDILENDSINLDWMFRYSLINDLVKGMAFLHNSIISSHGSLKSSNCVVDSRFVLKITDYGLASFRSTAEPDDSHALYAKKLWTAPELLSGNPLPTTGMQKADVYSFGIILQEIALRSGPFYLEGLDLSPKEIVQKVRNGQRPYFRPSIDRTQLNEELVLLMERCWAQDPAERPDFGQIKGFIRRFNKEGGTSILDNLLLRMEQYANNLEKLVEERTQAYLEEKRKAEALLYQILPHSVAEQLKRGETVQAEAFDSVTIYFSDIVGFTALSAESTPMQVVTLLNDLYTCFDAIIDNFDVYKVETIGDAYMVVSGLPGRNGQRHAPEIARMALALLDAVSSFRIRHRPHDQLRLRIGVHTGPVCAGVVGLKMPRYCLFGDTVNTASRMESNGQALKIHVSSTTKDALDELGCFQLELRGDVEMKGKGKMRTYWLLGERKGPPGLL
Excerpt: as §1, §2

[1] = system: human renal fibroblasts (HRFs); test: cGMP generation in human primary renal fibroblasts; assay type: cell-based; details: 10^-8, 10^-7, 10^-6 M, 10 minutes, vs vehicle
Experimental: (§3) cGMP Generation in Human Primary Renal Cells: Human primary renal fibroblasts (HRFs, Cell Biologics, Chicago, IL) and human renal proximal tubular epithelial cells (HRPTCs, ScienCell Research Laboratories, Carlsbad, CA) were maintained and sub-cultured according to the manufacturer's protocols. Briefly, the cells were grown in 6-well plates until 80% confluency and were then treated with treatment buffer (vehicle; HBSS including 0.1% BSA, 2 mM HEPES and 0.5 mM IBMX) alone or with concentrations of CRRL-408 (10^−8, 10^−7 and 10^−6 M) for 10 minutes. Cells were washed with PBS once and lysed with 0.1M HCl. Intracellular cGMP was measured in the lysate using a commercial cGMP ELISA kit (Enzo Life Sciences, Farmingdale, NY) as instructed by the manufacturer described below.
(§4) cGMP Assay: The ELISA plate was coated in neutralizing solution (50 μL), prior to addition of samples and standards. Cell lysates (100 μL) and standards (100 μL), in 0.1M HCL, were incubated with cGMP conjugate (50 μL) and cGMP antibody (50 μL) at room temperature for 2 hours, 500 rpm. The plates were washed 4 times and 200 μL of pNPP substrate was added in each well and incubated for 1 hour at room temperature. The reaction was stopped by adding stop solution and absorbance was read at 405 nm and corrected for plate imperfections at 570 nm using SpectramaxM2. […]

[2] = system: human renal proximal tubular cells (HRPTCs); test: cGMP generation in human renal proximal tubular epithelial cells; assay type: cell-based; details: 10^-8, 10^-7, 10^-6 M, 10 minutes, vs vehicle
Experimental: as §3, §4

normal rats = test: Acute IV infusion in vivo study, plasma and urinary cGMP; parameters: species or system rat; details: IV infusion 2.12 μg/kg/min, vs vehicle (saline)
Experimental: Acute IV Infusion In Vivo Study: the cGMP generating actions of 2.12 μg/kg/minute dose CRRL-408 or vehicle (0.9% normal saline) [n=4/group] was investigated in normal rats (approximately 2 months old; 200-250 grams; Envigo, East Millstone, NJ). Studies were performed in accordance with the Animal Welfare Act and with approval of the Mayo Clinic Institutional Animal Care and Use Committee.
Rats were anesthetized with isoflurane (2-3% in oxygen) and were subjected to vessel and bladder cannulation for peptide/vehicle infusion, blood sampling and urine collection. A polyethylene (PE)-50 tube catheter was placed into the jugular vein for CRRL-408/vehicle intravenous (IV) infusion. The carotid artery was cannulated with a PE-50 tube catheter for blood sampling. The bladder was accessed and cannulated with a PE-50 tube catheter for passive urine collection. After completion of the above procedural set up, a 30 minute equilibration period was performed that included continuous IV saline infusion. After the 30 minute equilibration period the saline infusion was replaced by a continuous IV infusion (75 min including a 15 minute lead-in period) of 2.12 μg/kg/minute dose of CRRL-408 or vehicle. The infusion rate was weight adjusted and calculated as follows: rat weight (grams)*0.7/60/100 mL/minute. […]

| Substance | cGMP generation (human GC-A) | cGMP generation (human GC-B) | other results |
| --- | --- | --- | --- |
| ANKKGLSKGCFGLKLDRIGSMSGLGCPSLRDPRPNAPSTSA [CRRL-405] | stimulated cGMP generation | stimulated cGMP generation | – |
| ANP: natriuretic peptide used as a positive control in HEK293 GC-A cells [reference compound] | – | – | cGMP generation (positive control) (human GC-A; HEK293 GC-A cells, 10^-8 M): significant cGMP generation response |
| CNP: C-type natriuretic peptide, used as a positive control in HEK293 GC-B cells [reference compound] | – | – | cGMP generation (positive control) (human GC-B; HEK293 GC-B cells, 10^-8 M): significant cGMP generation response |
| GLSKGCFGLKLDRIGSMSGLGCPSLRDPRPNAP STSA [CD-NP, reference compound] | stimulated cGMP generation | stimulated cGMP generation | – |
| KGANKKGLSKGCFGLKLDRIGSMSGLGCPSLRDPRPNAPSTSA [CRRL-407] | stimulated cGMP generation | stimulated cGMP generation | – |
| KKGLSKGCFGLKLDRIGSMSGLGCPSLRDPRPNAPSTSA [CRRL-404] | stimulated cGMP generation | stimulated cGMP generation | – |
| KYKGANKKGLSKGCFGLKLDRIGSMSGLGCPSLRDPRPNAPSTSA [CRRL-408] | stimulated cGMP generation | stimulated cGMP generation | intracellular cGMP levels [1]: increased intracellular cGMP levels in a dose dependent manner; intracellular cGMP levels [2]: increased intracellular cGMP levels in a dose dependent manner; plasma cGMP (normal rats): significantly elevated; urinary cGMP (normal rats): significantly elevated |
